Read-outs that look alike come from different tables or passages of the source.
Tested on: IL-1β production in PMA-differentiated THP-1 cells
Assay: IL-1β production in PMA-differentiated THP-1 cells stimulated with gramicidin (hTHP-1 assay, HTRF readout; Procedures 1-3)
Format: cell-based, human
Details: Homo sapiens, THP-1, hTHP-1 assay containing 2% fetal bovine serum, average, read-out: hTHP-1 IC50 (Average IC50 of compounds in hTHP-1 assay)
Summary of the method: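 PMA-differentiated (20 ng/ml, 16-18 h) THP-1 cells in RPMI with 2% FBS, 50,000 cells/well, preincubated 1 h with compound (final 0.0017-100 μM, 0.37% DMSO), then stimulated with 5 μM gramicidin for 2 h. IL-1β in cell-free supernatant measured by HTRF (620/668 nm).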

Structure (SMILES) | IC50 (class symbols) [µM] | IC50 (given as bound) [µM]
CC(C)c1ccc(C#N)c(C(C)C)c1NC(=O)N=S(N)(=O)c1ccc(C(C)(C)O)s1 (stereo not shown) [Example 254, N′-((3-cyano-2,6-diisopropylphenyl)carbamoyl)-5-(2-hydroxypropan-2-yl)thiophene-2-sulfonimidamide] | 1 to 5 | –
CCc1ccc2cnn(C)c2c1NC(=O)N=S(N)(=O)c1ncc(C(C)(C)O)s1 (stereo not shown) [Example 255, N′-((6-ethyl-1-methyl-1H-indazol-7-yl)carbamoyl)-5-(2-hydroxypropan-2-yl)thiazole-2-sulfonimidamide] | 5 to 30 | –
CCc1ccc2cn(C)nc2c1NC(=O)N=S(N)(=O)c1ncc(C(C)(C)O)s1 (stereo not shown) [Example 256, N′-((6-ethyl-2-methyl-2H-indazol-7-yl)carbamoyl)-5-(2-hydroxypropan-2-yl)thiazole-2-sulfonimidamide] | – | > 30
CC(C)(O)c1cnc(S(N)(=O)=NC(=O)Nc2c3c(cc4c2CCO4)CCC3)s1 (stereo not shown) [Example 257, 5-(2-hydroxypropan-2-yl)-N′-((3,5,6,7-tetrahydro-2H-indeno[5,6-b]furan-4-yl)carbamoyl)thiazole-2-sulfonimidamide] | 0.04 to 0.2 | –
CC(C)(O)c1cc(S(N)(=O)=NC(=O)Nc2c3c(cc4c2CCC4)CCC3)nn1-c1ccccc1 (stereo not shown) [Example 259, N′-((1,2,3,5,6,7-hexahydro-s-indacen-4-yl)carbamoyl)-5-(2-hydroxypropan-2-yl)-1-phenyl-1H-pyrazole-3-sulfonimidamide] | 0.2 to 1 | –
CC(C)(O)c1ccc(S(N)(=O)=NC(=O)Nc2c3c(cc4c2CCC4)CCC3)cn1 (stereo not shown) [Example 260, N′-((1,2,3,5,6,7-hexahydro-s-indacen-4-yl)carbamoyl)-6-(2-hydroxypropan-2-yl)pyridine-3-sulfonimidamide] | 0.2 to 1 | –
C#CCCC(=O)N(C)Cc1ccc(S(N)(=O)=NC(=O)Nc2c3c(cc4c2CCC4)CCC3)cc1 (stereo not shown) [Example 261, N-(4-(N′-((1,2,3,5,6,7-hexahydro-s-indacen-4-yl)carbamoyl)sulfamidimidoyl)benzyl)-N-methylpent-4-ynamide] | 1 to 5 | –
CC(C)(O)c1csc(S(N)(=O)=NC(=O)Nc2c3c(cc4c2CC4)CCC3)n1 (stereo not shown) [Example 262, 4-(2-Hydroxypropan-2-yl)-N′-((2,4,5,6-tetrahydro-1H-cyclobuta[f]inden-3-yl)carbamoyl)thiazole-2-sulfonimidamide] | 0.008 to 0.04 | –
Cc1nc(C(C)(C)O)ccc1S(N)(=O)=NC(=O)Nc1c2c(cc3c1CCC3)CCC2 (stereo not shown) [Example 264, N′-((1,2,3,5,6,7-hexahydro-s-indacen-4-yl)carbamoyl)-6-(2-hydroxypropan-2-yl)-2-methylpyridine-3-sulfonimidamide] | 1 to 5 | –
Cc1sc(S(N)(=O)=NC(=O)Nc2c3c(cc4c2CCC4)CCC3)nc1C(C)(C)O (stereo not shown) [Example 265, N′-(1,2,3,5,6,7-hexahydro-s-indacen-4-ylcarbamoyl)-4-(2-hydroxypropan-2-yl)-5-methylthiazole-2-sulfonimidamide] | 0.04 to 0.2 | –
CC(=O)N(C)Cc1ccc(S(N)(=O)=NC(=O)Nc2c3c(cc4c2CCC4)CCC3)cc1 (stereo not shown) [Example 268, N-(4-(N′-(1,2,3,5,6,7-hexahydro-s-indacen-4-ylcarbamoyl)sulfamimidoyl)benzyl)-N-methylacetamide] | 1 to 5 | –
CN1CCc2cc(S(N)(=O)=NC(=O)Nc3c4c(cc5c3CCC5)CCC4)ccc2C1 (stereo not shown) [Example 270, N′-((1,2,3,5,6,7-hexahydro-s-indacen-4-yl)carbamoyl)-2-methyl-1,2,3,4-tetrahydroisoquinoline-6-sulfonimidamide] | 1 to 5 | –
CN1CCc2ccc(S(=N)(=O)NC(=O)Nc3c4c(cc5c3CCC5)CCC4)cc2C1 (stereo not shown) [Example 271, N-(1,2,3,5,6,7-hexahydro-s-indacen-4-ylcarbamoyl)-2-methyl-1,2,3,4-tetrahydroisoquinoline-7-sulfonimidamide] | 1 to 5 | –

Results, then the compound that gave them:

IC50 (class symbols) [µM] | IC50 (given as bound) [µM] | Structure (SMILES)
0.2 to 1 | – | COc1cc(CN(C)C)ccc1S(N)(=O)=NC(=O)Nc1c2c(cc3c1CCC3)CCC2 (stereo not shown) [Example 272, 4-((Dimethylamino)methyl)-N′-((1,2,3,5,6,7-hexahydro-s-indacen-4-yl)carbamoyl)-2-methoxybenzenesulfonimidamide]
5 to 30 | – | Cn1ncc2cc(S(N)(=O)=NC(=O)Nc3c4c(cc5c3CCC5)CCC4)ccc21 (stereo not shown) [Example 273, N′-(1,2,3,5,6,7-hexahydro-s-indacen-4-ylcarbamoyl)-1-methyl-1H-indazole-5-sulfonimidamide]
1 to 5 | – | CC(C)Cc1ccc(S(N)(=O)=NC(=O)Nc2c3c(cc4c2CCC4)CCC3)cn1 (stereo not shown) [Example 275, N′-(1,2,3,5,6,7-hexahydro-s-indacen-4-ylcarbamoyl)-6-isobutylpyridine-3-sulfonimidamide]
0.2 to 1 | – | CN(C)Cc1ccc(S(N)(=O)=NC(=O)Nc2c3c(cc4c2CCC4)CCC3)cn1 (stereo not shown) [Example 276, 6-((Dimethylamino)methyl)-N′-(1,2,3,5,6,7-hexahydro-s-indacen-4-ylcarbamoyl)pyridine-3-sulfonimidamide]
– | > 30 | CC(C)Cc1ccc(S(N)(=O)=NC(=O)Nc2c3c(cc4c2CCC4)CCC3)cc1 (stereo not shown) [Example 277, N′-(1,2,3,5,6,7-hexahydro-s-indacen-4-ylcarbamoyl)-4-isobutylbenzenesulfonimidamide]
0.2 to 1 | – | CN(C)Cc1ccc(S(N)(=O)=NC(=O)Nc2c3c(cc4c2CCC4)CCC3)cc1F (stereo not shown) [Example 280, 4-((dimethylamino)methyl)-3-fluoro-N′-((1,2,3,5,6,7-hexahydro-s-indacen-4-yl)carbamoyl)benzenesulfonimidamide]
0.008 to 0.04 | – | CC(C)(O)c1cc(F)c(S(N)(=O)=NC(=O)Nc2c3c(cc4c2CC4)CCC3)s1 (stereo not shown) [Example 281, 3-fluoro-5-(2-hydroxypropan-2-yl)-N′-((2,4,5,6-tetrahydro-1H-cyclobuta[f]inden-3-yl)carbamoyl)thiophene-2-sulfonimidamide]
5 to 30 | – | CC(C)c1nn(-c2ccccc2)c(C(C)C)c1NC(=O)N=S(N)(=O)c1cc(C(C)(C)O)cs1 (stereo not shown) [Example 284, N′-((3,5-diisopropyl-1-phenyl-1H-pyrazol-4-yl)carbamoyl)-4-(2-hydroxypropan-2-yl)thiophene-2-sulfonimidamide]
1 to 5 | – | CNCc1ccc(S(N)(=O)=NC(=O)Nc2c3c(cc4c2CCC4)CCC3)c(F)c1 (stereo not shown) [Example 287, 2-fluoro-N′-((1,2,3,5,6,7-hexahydro-s-indacen-4-yl)carbamoyl)-4-((methylamino)methyl)benzene-sulfonimidamide]
1 to 5 | – | CC(C)c1ccc(S(N)(=O)=NC(=O)Nc2c3c(cc4c2CCC4)CCC3)cn1 (stereo not shown) [Example 288, N′-((1,2,3,5,6,7-hexahydro-s-indacen-4-yl)carbamoyl)-6-isopropylpyridine-3-sulfonimidamide]
1 to 5 | – | CCc1ccc2cn[nH]c2c1NC(=O)N=S(N)(=O)c1cnc(C(C)(C)O)s1 (stereo not shown) [Example 290, N′-((6-ethyl-1H-indazol-7-yl)carbamoyl)-2-(2-hydroxypropan-2-yl)thiazole-5-sulfonimidamide]
5 to 30 | – | Cc1ccc(-c2ccc(NC(=O)N=S(N)(=O)c3ncc(C(C)(C)O)s3)c3c2CCC3)cc1C (stereo not shown) [Example 426, 1-{Amino[5-(2-hydroxypropan-2-yl)-1,3-thiazol-2-yl]oxo-λ^6-sulfanylidene}-3-[7-(3,4-dimethylphenyl)-2,3-dihydro-1H-inden-4-yl]urea]
5 to 30 | – | Cc1ccc(-c2c3c(c(NC(=O)N=S(N)(=O)c4ncc(C(C)(C)O)s4)c4c2CCC4)CCC3)cc1C (stereo not shown) [Example 427, 1-{Amino[5-(2-hydroxypropan-2-yl)-1,3-thiazol-2-yl]oxo-λ^6-sulfanylidene}-3-[8-(3,4-dimethylphenyl)-1,2,3,5,6,7-hexahydro-s-indacen-4-yl]urea]
5 to 30 | – | Cc1nc(C)c(S(N)(=O)=NC(=O)Nc2c(C(C)C)cc(F)cc2C(C)C)s1 (stereo not shown) [Example 428, 3-[amino(dimethyl-1,3-thiazol-5-yl)oxo-λ^6-sulfanylidene]-1-[4-fluoro-2,6-bis(propan-2-yl)phenyl]urea]
5 to 30 | – | CC(C)c1cc(F)cc(C(C)C)c1NC(=O)N=S(N)(=O)c1cnc2c(cnn2C)c1 (stereo not shown) [Example 430, 3-[amino({1-methyl-1H-pyrazolo[3,4-b]pyridin-5-yl})oxo-λ^6-sulfanylidene]-1-[4-fluoro-2,6-bis(propan-2-yl)phenyl]urea]
5 to 30 | – | CC(C)c1cc(F)cc(C(C)C)c1NC(=O)N=S(N)(=O)c1cccc2c(N(C)C)cccc12 (stereo not shown) [Example 431, 1-{amino[5-(dimethylamino)naphthalen-1-yl]oxo-λ^6-sulfanylidene}-3-[4-fluoro-2,6-bis(propan-2-yl)phenyl]urea]
– | > 30 | Cc1cc(NC(=O)N=S(N)(=O)c2ccc(C(C)(C)O)s2)cc(C)n1 (stereo not shown) [compound 78, N-((2,6-dimethylpyridin-4-yl)carbamoyl)-5-(2-hydroxypropan-2-yl)thiophene-2-sulfonimidamide]

From patent publication US10654816B2, “Compounds and compositions for treating conditions associated with NLRP activity” (NOVARTIS INFLAMMASOME RESEARCH, INC., priority 2017, dated 2020)
